Here are results for one compound from ChEMBL document CHEMBL2021885, “Triphenylbutanamines: kinesin spindle protein inhibitors with in vivo antitumor activity” (J Med Chem, 2012).

The target of data set [1] is T1, Kinesin-like protein KIF7 (Homo sapiens) (UniProt Q2M1P5).
T1 sequence (whole entry): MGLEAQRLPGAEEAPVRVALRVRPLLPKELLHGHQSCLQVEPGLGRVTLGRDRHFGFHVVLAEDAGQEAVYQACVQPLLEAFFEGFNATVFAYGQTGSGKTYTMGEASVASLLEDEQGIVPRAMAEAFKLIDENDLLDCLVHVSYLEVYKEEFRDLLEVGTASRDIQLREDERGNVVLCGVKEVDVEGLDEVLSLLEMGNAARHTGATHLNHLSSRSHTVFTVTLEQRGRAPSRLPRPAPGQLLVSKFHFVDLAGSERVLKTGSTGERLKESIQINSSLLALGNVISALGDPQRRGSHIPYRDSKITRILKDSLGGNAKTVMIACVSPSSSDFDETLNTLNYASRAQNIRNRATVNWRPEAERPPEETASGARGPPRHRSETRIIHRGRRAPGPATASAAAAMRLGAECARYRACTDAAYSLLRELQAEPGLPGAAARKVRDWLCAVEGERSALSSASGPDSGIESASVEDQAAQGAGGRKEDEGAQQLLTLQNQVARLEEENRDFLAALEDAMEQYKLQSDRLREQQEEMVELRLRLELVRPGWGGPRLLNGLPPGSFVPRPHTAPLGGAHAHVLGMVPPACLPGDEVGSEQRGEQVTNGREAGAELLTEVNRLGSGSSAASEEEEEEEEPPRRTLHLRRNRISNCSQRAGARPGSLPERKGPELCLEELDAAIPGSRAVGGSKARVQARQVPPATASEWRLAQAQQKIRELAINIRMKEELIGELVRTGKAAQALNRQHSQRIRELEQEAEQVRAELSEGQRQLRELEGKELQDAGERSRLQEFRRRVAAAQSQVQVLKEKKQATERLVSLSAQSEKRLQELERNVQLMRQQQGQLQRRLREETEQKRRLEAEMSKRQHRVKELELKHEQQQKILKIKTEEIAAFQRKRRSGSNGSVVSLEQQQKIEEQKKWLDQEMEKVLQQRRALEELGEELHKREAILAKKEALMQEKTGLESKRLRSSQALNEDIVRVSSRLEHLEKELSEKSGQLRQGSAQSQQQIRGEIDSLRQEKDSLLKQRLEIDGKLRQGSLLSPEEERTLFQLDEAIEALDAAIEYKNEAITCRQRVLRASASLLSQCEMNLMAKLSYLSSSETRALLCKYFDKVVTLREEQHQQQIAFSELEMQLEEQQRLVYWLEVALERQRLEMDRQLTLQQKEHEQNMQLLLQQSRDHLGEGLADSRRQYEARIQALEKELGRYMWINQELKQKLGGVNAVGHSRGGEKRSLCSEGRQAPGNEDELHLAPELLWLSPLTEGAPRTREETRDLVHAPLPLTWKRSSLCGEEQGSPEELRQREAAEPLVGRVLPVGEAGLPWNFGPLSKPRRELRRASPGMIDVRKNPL
As to the kind of experiment: Inhibition of Kif7 ATPase activity.

In data set [2] the target is T1, Kinesin-like protein KIF7 (Homo sapiens). As to the kind of experiment: Inhibition of MT-stimulated Kif7 ATPase activity.
Data set [3] has as its target Kinesin-like protein KIF20B (Homo sapiens) (UniProt Q96Q89). In words: Inhibition of MT-stimulated MPP1 ATPase activity.
Data set [4] has as its target Centromere-associated protein E (Homo sapiens) (UniProt Q02224). As to the kind of experiment: Inhibition of CENP-E ATPase activity.
Data set [5] in a line: Antiproliferative activity against human hTERT-HME1 cells after 72 hrs by Alamar blue assay. The class given is cell-based. Background: Resazurin is reduced to fluorescent resorufin, in cell work by metabolically active cells.
Data set [6] deals with BXPC-3. As to the kind of experiment: Antiproliferative activity against human BxPC3 cells after 72 hrs by Alamar blue assay. The data set is classed as functional. To be noted: BXPC-3, 72 h.
Data set [7] in a line: Turbidimetric solubility of the compound at pH 2. The class given is physicochemical. To be noted: buffer.
The nature of data set [8]: Turbidimetric solubility of the compound at pH 7.4. The conditions noted are these: buffer. The data set is classed as physicochemical.
A short description of data set [9]: Lipophilicity, Log P of the compound. The data set is classed as physicochemical. The conditions noted are these: octanol/water; read-out: logP.
The nature of data set [10]: Antitumor activity against human LXFS 538 cells xenografted in nu/nu nude Charles river mouse assessed as tumor volume doubling time at 20 mg/kg on days 0, 2 and 4 and 15 mg/kg on days 17, 19, 24 measured after 28 days (reference value: 8.8 days). The data set is classed as functional. For orientation: A xenograft is tissue or cells of one species grown in another, often human tumour cells in immunodeficient mice.

Calls of active or inactive are those of the source. The calls are words filed in the database; no cut-off is given here.

Sequence of Centromere-associated protein E (Homo sapiens) (Q02224 whole entry): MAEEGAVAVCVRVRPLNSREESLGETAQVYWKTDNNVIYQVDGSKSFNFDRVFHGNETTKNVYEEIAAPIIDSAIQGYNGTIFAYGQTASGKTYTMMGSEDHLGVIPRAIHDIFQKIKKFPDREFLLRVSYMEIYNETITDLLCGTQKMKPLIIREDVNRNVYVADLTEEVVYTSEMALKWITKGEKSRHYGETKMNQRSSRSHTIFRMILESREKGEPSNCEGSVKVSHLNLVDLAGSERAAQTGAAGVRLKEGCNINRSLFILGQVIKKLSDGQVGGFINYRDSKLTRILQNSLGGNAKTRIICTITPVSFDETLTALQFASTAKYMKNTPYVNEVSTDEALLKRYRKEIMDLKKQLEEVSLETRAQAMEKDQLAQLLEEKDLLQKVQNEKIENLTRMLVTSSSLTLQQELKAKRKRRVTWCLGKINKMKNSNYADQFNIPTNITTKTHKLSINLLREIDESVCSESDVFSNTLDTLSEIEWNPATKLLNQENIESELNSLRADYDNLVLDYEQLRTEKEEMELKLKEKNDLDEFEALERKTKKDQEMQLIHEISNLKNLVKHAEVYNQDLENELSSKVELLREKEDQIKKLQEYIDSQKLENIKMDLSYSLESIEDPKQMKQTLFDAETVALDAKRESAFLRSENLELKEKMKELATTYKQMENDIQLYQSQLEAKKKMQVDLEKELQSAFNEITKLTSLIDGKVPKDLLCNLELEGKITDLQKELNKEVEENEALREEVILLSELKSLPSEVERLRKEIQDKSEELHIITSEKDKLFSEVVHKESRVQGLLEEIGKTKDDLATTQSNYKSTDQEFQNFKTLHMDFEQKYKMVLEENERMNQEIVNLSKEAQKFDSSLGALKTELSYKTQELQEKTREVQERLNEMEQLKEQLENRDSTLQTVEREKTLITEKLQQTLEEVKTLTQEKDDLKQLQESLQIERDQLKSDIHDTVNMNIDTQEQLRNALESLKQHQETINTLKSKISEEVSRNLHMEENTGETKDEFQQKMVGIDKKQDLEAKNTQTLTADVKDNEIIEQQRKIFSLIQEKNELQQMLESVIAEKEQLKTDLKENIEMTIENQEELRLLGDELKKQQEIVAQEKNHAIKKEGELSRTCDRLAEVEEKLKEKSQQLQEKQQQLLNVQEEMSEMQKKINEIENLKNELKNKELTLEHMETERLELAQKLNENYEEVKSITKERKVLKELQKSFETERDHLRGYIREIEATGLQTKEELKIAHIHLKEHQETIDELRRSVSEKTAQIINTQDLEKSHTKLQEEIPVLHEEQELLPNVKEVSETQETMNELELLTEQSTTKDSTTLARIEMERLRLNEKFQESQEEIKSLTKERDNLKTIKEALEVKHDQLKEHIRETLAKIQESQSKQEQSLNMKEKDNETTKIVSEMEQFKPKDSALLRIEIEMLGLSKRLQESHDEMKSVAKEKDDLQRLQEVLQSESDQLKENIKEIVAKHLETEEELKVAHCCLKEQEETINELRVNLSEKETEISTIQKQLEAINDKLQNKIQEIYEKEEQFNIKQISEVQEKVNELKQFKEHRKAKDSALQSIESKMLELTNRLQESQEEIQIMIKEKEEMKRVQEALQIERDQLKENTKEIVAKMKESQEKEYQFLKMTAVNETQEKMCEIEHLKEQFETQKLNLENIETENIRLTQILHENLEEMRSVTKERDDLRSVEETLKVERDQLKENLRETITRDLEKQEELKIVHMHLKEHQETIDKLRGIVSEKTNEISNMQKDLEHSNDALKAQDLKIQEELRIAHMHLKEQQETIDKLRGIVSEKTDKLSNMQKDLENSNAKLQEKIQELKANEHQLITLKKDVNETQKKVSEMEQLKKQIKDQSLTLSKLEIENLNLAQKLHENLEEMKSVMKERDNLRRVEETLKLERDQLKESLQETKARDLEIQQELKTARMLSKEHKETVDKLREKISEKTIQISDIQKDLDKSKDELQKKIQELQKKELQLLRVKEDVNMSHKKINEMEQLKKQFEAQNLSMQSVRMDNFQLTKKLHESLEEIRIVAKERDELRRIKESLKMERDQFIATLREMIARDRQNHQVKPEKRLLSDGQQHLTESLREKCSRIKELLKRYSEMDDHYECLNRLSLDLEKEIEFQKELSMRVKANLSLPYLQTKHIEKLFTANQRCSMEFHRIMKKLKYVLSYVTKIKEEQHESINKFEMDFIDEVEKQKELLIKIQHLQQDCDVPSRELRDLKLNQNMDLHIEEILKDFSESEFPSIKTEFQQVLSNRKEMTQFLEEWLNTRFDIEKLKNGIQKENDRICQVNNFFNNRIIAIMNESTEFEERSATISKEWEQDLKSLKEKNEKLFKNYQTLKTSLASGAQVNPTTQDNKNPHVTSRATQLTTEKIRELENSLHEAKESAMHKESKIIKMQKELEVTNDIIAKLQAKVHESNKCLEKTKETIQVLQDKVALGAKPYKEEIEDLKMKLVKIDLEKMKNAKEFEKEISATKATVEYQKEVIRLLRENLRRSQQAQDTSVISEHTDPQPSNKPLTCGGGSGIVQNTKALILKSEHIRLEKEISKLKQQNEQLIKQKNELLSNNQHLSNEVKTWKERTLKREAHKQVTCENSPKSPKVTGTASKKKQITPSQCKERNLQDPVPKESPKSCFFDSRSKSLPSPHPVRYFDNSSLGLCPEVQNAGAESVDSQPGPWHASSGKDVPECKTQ
Sequence of Kinesin-like protein KIF20B (Homo sapiens) (Q96Q89 whole entry): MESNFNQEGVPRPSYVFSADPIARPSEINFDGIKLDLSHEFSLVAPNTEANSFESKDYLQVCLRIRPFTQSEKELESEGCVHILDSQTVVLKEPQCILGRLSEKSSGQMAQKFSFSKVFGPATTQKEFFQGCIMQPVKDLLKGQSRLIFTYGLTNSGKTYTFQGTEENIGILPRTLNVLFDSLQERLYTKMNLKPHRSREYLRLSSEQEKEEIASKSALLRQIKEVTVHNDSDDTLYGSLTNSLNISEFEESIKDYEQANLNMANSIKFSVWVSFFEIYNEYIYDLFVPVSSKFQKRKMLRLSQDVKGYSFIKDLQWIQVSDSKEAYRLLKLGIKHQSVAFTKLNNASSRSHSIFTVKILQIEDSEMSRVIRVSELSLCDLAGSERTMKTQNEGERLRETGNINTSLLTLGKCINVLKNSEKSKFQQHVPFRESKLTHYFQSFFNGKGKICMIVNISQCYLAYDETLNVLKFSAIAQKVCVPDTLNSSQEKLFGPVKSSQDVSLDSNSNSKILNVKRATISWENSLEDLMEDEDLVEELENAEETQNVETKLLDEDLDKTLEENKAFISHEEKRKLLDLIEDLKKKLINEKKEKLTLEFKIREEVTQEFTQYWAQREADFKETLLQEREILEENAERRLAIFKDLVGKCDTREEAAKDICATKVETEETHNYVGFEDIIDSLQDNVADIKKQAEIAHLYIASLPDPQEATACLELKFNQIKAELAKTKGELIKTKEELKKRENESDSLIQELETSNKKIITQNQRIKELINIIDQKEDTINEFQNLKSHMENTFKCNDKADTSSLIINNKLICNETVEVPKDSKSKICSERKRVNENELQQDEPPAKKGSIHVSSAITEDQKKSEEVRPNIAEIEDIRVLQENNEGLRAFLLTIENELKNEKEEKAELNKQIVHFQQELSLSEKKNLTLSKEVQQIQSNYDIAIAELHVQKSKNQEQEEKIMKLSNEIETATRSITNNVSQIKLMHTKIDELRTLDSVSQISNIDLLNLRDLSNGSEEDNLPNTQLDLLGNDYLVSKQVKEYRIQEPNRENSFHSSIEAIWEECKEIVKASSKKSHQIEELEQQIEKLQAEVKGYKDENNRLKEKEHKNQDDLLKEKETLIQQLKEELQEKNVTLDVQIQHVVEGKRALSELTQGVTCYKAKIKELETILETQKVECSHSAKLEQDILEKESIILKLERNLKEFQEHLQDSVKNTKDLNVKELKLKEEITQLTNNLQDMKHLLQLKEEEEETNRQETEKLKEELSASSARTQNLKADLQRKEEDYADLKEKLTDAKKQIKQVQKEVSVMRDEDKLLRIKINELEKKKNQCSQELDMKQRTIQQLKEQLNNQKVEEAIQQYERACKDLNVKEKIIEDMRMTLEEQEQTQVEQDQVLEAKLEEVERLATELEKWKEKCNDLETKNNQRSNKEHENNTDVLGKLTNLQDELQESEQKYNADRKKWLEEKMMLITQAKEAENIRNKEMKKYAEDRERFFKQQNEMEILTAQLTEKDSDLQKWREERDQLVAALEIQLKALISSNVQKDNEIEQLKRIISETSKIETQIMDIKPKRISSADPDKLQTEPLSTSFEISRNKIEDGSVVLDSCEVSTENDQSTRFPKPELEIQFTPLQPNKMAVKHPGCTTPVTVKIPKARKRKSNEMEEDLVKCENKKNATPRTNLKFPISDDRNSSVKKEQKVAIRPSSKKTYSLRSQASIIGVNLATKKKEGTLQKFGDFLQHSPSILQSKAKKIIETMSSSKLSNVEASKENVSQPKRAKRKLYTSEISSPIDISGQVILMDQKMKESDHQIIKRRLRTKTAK

In general, GI50 refers to the concentration giving 50% growth inhibition. A low value points to more potent growth inhibition. Usually kinetic solubility stands for the concentration staying in solution when a stock, usually in DMSO, is diluted into the medium. One may read the logP as a log measure of how a compound divides between an organic and an aqueous phase. As to `Cc1cccc(C(CCC(N)C(=O)O)(c2ccccc2)c2ccccc2)c1` (racemic), the inhibition result in data set [1], in data set [2], in data set [3] and in data set [4] was “inactive” each time. This compound also came in with a GI50 at 72 h in data set [5] of 38 nM. Besides, the GI50 in data set [6] stood at 144 nM. The solubility (kinetic) in data set [7] and in [8] was above 100 µM each time. The logP in data set [9] worked out at 2.45. The Time in data set [10] is 28.7 days.
